From ChEMBL document CHEMBL1157346, “Synthesis and antiproliferative activity in vitro of novel (2-butynyl)thioquinolines” (2008)
≈ marks a conversion by molar mass, not a printed value. Calls of active or inactive are those of the source. No cut-off for these calls is given here.

Assays:
Type in all cases: functional
CCRF-CEM = experiment: Cytotoxicity against human CCRF-CEM cells after 72 hrs by SRB assay; settings: for IC50: read-out: ID50 (the source's name)
P388 = experiment: Cytotoxicity against mouse P388 cells after 72 hrs by MTT assay; settings: for IC50: P388, 72 h, read-out: ID50 (the source's name)
[1] = (§1) Cytotoxicity against human SW707 cells after 72 hrs by SRB assay; settings: SW707, 72 h, read-out: ID50 (the source's name)
B16 = experiment: Cytotoxicity against mouse B16 cells after 72 hrs by SRB assay; settings: for IC50: B16, 72 h, read-out: ID50 (the source's name)
SW707 = experiment: as §1

SMILES | IC50 (CCRF-CEM) [µg/mL] | IC50 (P388) [µg/mL] | IC50 [1] [µg/mL] | IC50 (B16) [µg/mL] | Activity (B16) | Activity (CCRF-CEM) | Activity (P388) | Activity (SW707)
CSc1cnc2ccccc2c1[Se]CC#CCO | 0.5 (≈ 1.55 µM) | 2.6 (≈ 8.07 µM) | 3.4 (≈ 10.5 µM) | 4.2 (≈ 13 µM) | – | – | – | –
C#CCSc1cnc2ccccc2c1SCC#CC[Se]c1c(SCC#CC)cnc2ccccc12 | 30.3 (≈ 52.8 µM) | 30.7 (≈ 53.5 µM) | 43 (≈ 75 µM) | – | inactive | – | – | –
CSc1cnc2ccccc2c1SCC#CCO | 2.3 (≈ 8.35 µM) | 3.1 (≈ 11.3 µM) | 34.9 (≈ 127 µM) | 49.8 (≈ 181 µM) | – | – | – | –
OCC#CCSc1cnc2ccccc2c1SCC#CCBr | 0.6 (≈ 1.53 µM) | 43.2 (≈ 110 µM) | 36.2 (≈ 92.3 µM) | 4.9 (≈ 12.5 µM) | – | – | – | –
OCC#CCSc1cnc2ccccc2c1SCC#CCO | 2.6 (≈ 7.89 µM) | 5.7 (≈ 17.3 µM) | 32 (≈ 97.1 µM) | 42.2 (≈ 128 µM) | – | – | – | –
C#CCSc1cnc2ccccc2c1SCC#CCO | 3.2 (≈ 10.7 µM) | 4 (≈ 13.4 µM) | 42.6 (≈ 142 µM) | 54.7 (≈ 183 µM) | – | – | – | –
COc1c(SCC#CCO)cnc2ccccc12 | 22 (≈ 84.8 µM) | 23.2 (≈ 89.5 µM) | 67.4 (≈ 260 µM) | – | inactive | – | – | –
C#CCSc1cnc2ccccc2c1SCC#CCSc1c(SCC#C)cnc2ccccc12 | – | – | – | – | inactive | inactive | inactive | inactive
C#CCSc1cnc2ccccc2c1[Se]CC#CCO | 3.2 (≈ 9.24 µM) | 3.1 (≈ 8.95 µM) | 3.3 (≈ 9.53 µM) | 3.6 (≈ 10.4 µM) | – | – | – | –
OCC#CCSc1cnc2ccccc2c1[Se]CC#CCO | 1.4 (≈ 3.72 µM) | 4.1 (≈ 10.9 µM) | 26.6 (≈ 70.7 µM) | 4.3 (≈ 11.4 µM) | – | – | – | –
OCC#CCSc1cnc2ccccc2c1Cl | 4.1 (≈ 15.5 µM) | 2.4 (≈ 9.1 µM) | 6.2 (≈ 23.5 µM) | – | inactive | – | – | –
CC#CCSc1cnc2ccccc2c1SCC#CCSc1c(SCC#CC)cnc2ccccc12 | – | – | – | – | inactive | inactive | inactive | inactive
C[Se]c1c(SCC#CCO)cnc2ccccc12 | 2.1 (≈ 6.52 µM) | 19.8 (≈ 61.4 µM) | 3.5 (≈ 10.9 µM) | 5.8 (≈ 18 µM) | – | – | – | –
CSc1cnc2ccccc2c1SCC#CCSc1c(SC)cnc2ccccc12 | – | – | – | – | inactive | inactive | inactive | inactive
C#CCSc1c(SCC#CCO)cnc2ccccc12 | 2.7 (≈ 9.02 µM) | 13.3 (≈ 44.4 µM) | – | – | inactive | – | – | inactive
C#CC[Se]c1c(SCC#CCO)cnc2ccccc12 | 1.9 (≈ 5.49 µM) | 2.5 (≈ 7.22 µM) | 3.8 (≈ 11 µM) | 6.8 (≈ 19.6 µM) | – | – | – | –
CSc1c(SCC#CCO)cnc2ccccc12 | 13.9 (≈ 50.5 µM) | 32.3 (≈ 117 µM) | 69.3 (≈ 252 µM) | – | inactive | – | – | –
OCC#CCSc1cnc2ccccc2c1[Se]CC#CCBr | 0.2 (≈ 0.455 µM) | 1.6 (≈ 3.64 µM) | 2.8 (≈ 6.37 µM) | 4.6 (≈ 10.5 µM) | – | – | – | –
C#CCSc1cnc2ccccc2c1[Se]CC#CCBr | 0.3 (≈ 0.733 µM) | 1.2 (≈ 2.93 µM) | 2.2 (≈ 5.38 µM) | 4.2 (≈ 10.3 µM) | – | – | – | –
